# Assay results as given in ChEMBL document CHEMBL1201862, “PubChem BioAssay data set” (2004).
#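 Test compounds were applied to cells in 96-well plates for 48 hours at 5 doses. Abbreviation: GI50, concentration required for 50% inhibition of growth.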 Activity calls are given as the source filed them. Rule as the data show it: active = GI50 up to about 1.1 µM and inactive = higher.
# Columns and labels:
# Test in all cases: inhibition of tumour cell growth, NCI panel, 48 h
# [1] = system: 786-0
# [2] = system: A498
# [3] = system: A549
# [4] = system: ACHN
# [5] = system: BT-549
# [6] = system: CAKI-1
# [7] = system: CCRF-CEM
# [8] = system: COLO 205
# [9] = system: DU-145
# [10] = system: EKVX
# [11] = system: HCC 2998
# [12] = system: HCT-116
# [13] = system: HCT-15
# [14] = system: HL-60
# [15] = system: HOP-62
# [16] = system: HOP-92
# [17] = system: HT-29
# [18] = system: Hs-578T
# [19] = system: IGROV-1
# [20] = system: K562
# [21] = system: KM12
# [22] = system: LOX IMVI
# [23] = system: M14
# [24] = system: MCF7
# [25] = system: MDA-MB-231
# [26] = system: MDA-MB-435
# [27] = system: MDA-N
# [28] = system: MOLT-4
# [29] = system: Malme-3M
# [30] = system: NCI-H226
# [31] = system: NCI-H23
# [32] = system: NCI-H460
# [33] = system: NCI-H522
# [34] = system: NCI/ADR-RES
# [35] = system: OVCAR-3
# [36] = system: OVCAR-4
# [37] = system: OVCAR-5
# [38] = system: OVCAR-8
# [39] = system: PC-3
# [40] = system: RPMI-8226
# [41] = system: RXF 393
# [42] = system: SF-268
# [43] = system: SF-295
# [44] = system: SF-539
# [45] = system: SK-MEL-28
# [46] = system: SK-MEL-2
# [47] = system: SK-MEL-5
# [48] = system: SK-OV-3
# [49] = system: SN12C
# [50] = system: SNB-19
# [51] = system: SNB-75
# [52] = system: SR
# [53] = system: SW-620
# [54] = system: T47D
# [55] = system: TK-10
# [56] = system: U-251
# [57] = system: UACC-257
# [58] = system: UACC-62
# [59] = system: UO-31
compound,measurement,setting,value
COc1cccc(/C=N/n2c(Cc3ccc(Cl)cc3)n[nH]c2=O)c1,GI50,[1],25.1 µM (inactive)
same,GI50,[2],59 µM (inactive)
same,GI50,[3],58.6 µM (inactive)
same,GI50,[4],36.6 µM (inactive)
same,GI50,[5],26.1 µM (inactive)
same,GI50,[6],23.4 µM (inactive)
same,GI50,[7],> 100 µM (inactive)
same,GI50,[8],> 100 µM (inactive)
same,GI50,[9],25.8 µM (inactive)
same,GI50,[10],29.6 µM (inactive)
same,GI50,[11],> 100 µM (inactive)
same,GI50,[12],47.8 µM (inactive)
same,GI50,[13],99.3 µM
same,GI50,[14],> 100 µM (inactive)
same,GI50,[15],15.4 µM (inactive)
same,GI50,[16],23.1 µM (inactive)
same,GI50,[17],12.4 µM (inactive)
same,GI50,[18],23.4 µM (inactive)
same,GI50,[19],33.5 µM (inactive)
same,GI50,[20],> 100 µM (inactive)
same,GI50,[21],> 100 µM (inactive)
same,GI50,[22],25.6 µM (inactive)
same,GI50,[23],> 100 µM (inactive)
same,GI50,[24],29.9 µM (inactive)
same,GI50,[25],19.7 µM (inactive)
same,GI50,[26],> 100 µM (inactive)
same,GI50,[27],> 100 µM (inactive)
same,GI50,[28],> 100 µM (inactive)
same,GI50,[29],44.6 µM (inactive)
same,GI50,[30],> 28.2 µM (inactive)
same,GI50,[31],27.9 µM (inactive)
same,GI50,[32],> 91.4 µM (inactive)
same,GI50,[33],14.7 µM (inactive)
same,GI50,[34],30.6 µM (inactive)
same,GI50,[35],> 100 µM (inactive)
same,GI50,[36],> 92.9 µM (inactive)
same,GI50,[37],> 78.7 µM (inactive)
same,GI50,[38],16.9 µM (inactive)
same,GI50,[39],56.5 µM (inactive)
same,GI50,[40],> 77.6 µM (inactive)
same,GI50,[41],2 µM (inactive)
same,GI50,[42],15.9 µM (inactive)
same,GI50,[43],17.1 µM (inactive)
same,GI50,[44],15.8 µM (inactive)
same,GI50,[45],> 100 µM (inactive)
same,GI50,[46],32.7 µM (inactive)
same,GI50,[47],> 100 µM (inactive)
same,GI50,[48],27.7 µM (inactive)
same,GI50,[49],24.3 µM (inactive)
same,GI50,[50],27.3 µM (inactive)
same,GI50,[51],11.7 µM (inactive)
same,GI50,[52],> 76.9 µM (inactive)
same,GI50,[53],> 100 µM (inactive)
same,GI50,[54],16.1 µM (inactive)
same,GI50,[55],74 µM (inactive)
same,GI50,[56],22.8 µM (inactive)
same,GI50,[57],> 100 µM (inactive)
same,GI50,[58],34.2 µM (inactive)
same,GI50,[59],> 73.5 µM (inactive)
C#C/C=C/CC1OC(C(Br)CC)CC(Br)C2CC1O2 (configuration not stated),GI50,[1],7.69 µM (inactive)
same,GI50,[2],> 100 µM (inactive)
same,GI50,[3],68.7 µM (inactive)
same,GI50,[4],39.4 µM (inactive)
same,GI50,[5],38.9 µM (inactive)
same,GI50,[6],> 100 µM (inactive)
same,GI50,[7],38.6 µM (inactive)
same,GI50,[8],82 µM (inactive)
same,GI50,[9],> 100 µM (inactive)
same,GI50,[10],40.6 µM (inactive)
same,GI50,[11],56 µM (inactive)
same,GI50,[12],30.6 µM (inactive)
same,GI50,[13],40.7 µM
same,GI50,[14],34.1 µM (inactive)
same,GI50,[15],85.7 µM (inactive)
same,GI50,[16],22.8 µM (inactive)
same,GI50,[17],42.6 µM (inactive)
same,GI50,[18],87.9 µM (inactive)
same,GI50,[19],3.25 µM (inactive)
same,GI50,[20],29 µM (inactive)
same,GI50,[21],60.5 µM (inactive)
same,GI50,[22],1.71 µM (inactive)
same,GI50,[23],> 100 µM (inactive)
same,GI50,[24],40.2 µM (inactive)
same,GI50,[25],> 100 µM (inactive)
same,GI50,[26],86.5 µM (inactive)
same,GI50,[27],80.5 µM (inactive)
same,GI50,[28],29.4 µM (inactive)
same,GI50,[29],11.3 µM (inactive)
same,GI50,[30],> 100 µM (inactive)
same,GI50,[31],> 100 µM (inactive)
same,GI50,[32],> 100 µM (inactive)
same,GI50,[33],2.58 µM (inactive)
same,GI50,[34],19.1 µM (inactive)
same,GI50,[35],38.5 µM (inactive)
same,GI50,[36],37.8 µM (inactive)
same,GI50,[37],> 100 µM (inactive)
same,GI50,[38],61.1 µM (inactive)
same,GI50,[39],45.6 µM (inactive)
same,GI50,[40],27.1 µM (inactive)
same,GI50,[41],48.6 µM (inactive)
same,GI50,[42],> 100 µM (inactive)
same,GI50,[43],> 100 µM (inactive)
same,GI50,[44],> 100 µM (inactive)
same,GI50,[45],42.1 µM (inactive)
same,GI50,[46],> 100 µM (inactive)
same,GI50,[47],89.3 µM (inactive)
same,GI50,[48],40.9 µM (inactive)
same,GI50,[49],63.7 µM (inactive)
same,GI50,[50],> 100 µM (inactive)
same,GI50,[51],52.1 µM (inactive)
same,GI50,[52],34.6 µM (inactive)
same,GI50,[53],34.8 µM (inactive)
same,GI50,[54],75.3 µM (inactive)
same,GI50,[55],> 100 µM (inactive)
same,GI50,[56],78 µM (inactive)
same,GI50,[57],> 100 µM (inactive)
same,GI50,[58],56.2 µM (inactive)
